Data reported in ChEMBL document CHEMBL4613233, “Discovery of 2-((4-resorcinolyl)-5-aryl-1,2,3-triazol-1-yl)acetates as potent Hsp90 inhibitors with selectivity over TRAP1” (Bioorg Med Chem Lett, 2020).
pIC50: −log10 of the molar value.

Legend:
[1] = target: Heat shock protein HSP 90-alpha (Homo sapiens, UniProt P07900)
Description: Inhibition of recombinant HSP90alpha (unknown origin) incubated for 24 hrs in presence of 1-FITC3 probe by fluorescence polarization assay

Endoplasmin = Endoplasmin (Homo sapiens, UniProt P14625); test: Inhibition of GRP94 (unknown origin)
[2] = target: T1, Heat shock protein 75 kDa, mitochondrial (Homo sapiens, UniProt Q12931); test: Inhibition of TRAP1 (unknown origin)
T1 sequence (Q12931 whole entry): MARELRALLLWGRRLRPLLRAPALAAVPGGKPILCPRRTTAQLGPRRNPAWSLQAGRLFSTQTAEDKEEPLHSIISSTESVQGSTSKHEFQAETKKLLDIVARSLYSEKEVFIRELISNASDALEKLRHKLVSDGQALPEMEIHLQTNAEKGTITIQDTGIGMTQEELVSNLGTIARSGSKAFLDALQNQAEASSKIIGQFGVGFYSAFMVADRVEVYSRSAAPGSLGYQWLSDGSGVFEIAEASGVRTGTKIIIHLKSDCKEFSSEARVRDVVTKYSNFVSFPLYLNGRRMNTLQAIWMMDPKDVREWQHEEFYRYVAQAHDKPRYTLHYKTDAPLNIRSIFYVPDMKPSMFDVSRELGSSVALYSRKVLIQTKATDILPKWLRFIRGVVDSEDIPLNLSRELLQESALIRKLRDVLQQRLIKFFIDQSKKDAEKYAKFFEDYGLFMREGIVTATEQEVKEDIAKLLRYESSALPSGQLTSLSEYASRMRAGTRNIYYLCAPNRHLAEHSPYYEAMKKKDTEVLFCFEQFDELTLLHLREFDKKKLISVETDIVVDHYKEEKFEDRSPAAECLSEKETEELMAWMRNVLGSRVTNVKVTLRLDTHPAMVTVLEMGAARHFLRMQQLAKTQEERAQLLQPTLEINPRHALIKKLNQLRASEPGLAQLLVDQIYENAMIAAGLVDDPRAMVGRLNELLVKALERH

PC-3 = test: Antiproliferative activity against human PC3 cells by MTT assay; assay type: functional, cell-based
HeLa = test: Antiproliferative activity against human HeLa cells by MTT assay; assay type: functional, cell-based

Sequence of Endoplasmin (P14625 whole entry): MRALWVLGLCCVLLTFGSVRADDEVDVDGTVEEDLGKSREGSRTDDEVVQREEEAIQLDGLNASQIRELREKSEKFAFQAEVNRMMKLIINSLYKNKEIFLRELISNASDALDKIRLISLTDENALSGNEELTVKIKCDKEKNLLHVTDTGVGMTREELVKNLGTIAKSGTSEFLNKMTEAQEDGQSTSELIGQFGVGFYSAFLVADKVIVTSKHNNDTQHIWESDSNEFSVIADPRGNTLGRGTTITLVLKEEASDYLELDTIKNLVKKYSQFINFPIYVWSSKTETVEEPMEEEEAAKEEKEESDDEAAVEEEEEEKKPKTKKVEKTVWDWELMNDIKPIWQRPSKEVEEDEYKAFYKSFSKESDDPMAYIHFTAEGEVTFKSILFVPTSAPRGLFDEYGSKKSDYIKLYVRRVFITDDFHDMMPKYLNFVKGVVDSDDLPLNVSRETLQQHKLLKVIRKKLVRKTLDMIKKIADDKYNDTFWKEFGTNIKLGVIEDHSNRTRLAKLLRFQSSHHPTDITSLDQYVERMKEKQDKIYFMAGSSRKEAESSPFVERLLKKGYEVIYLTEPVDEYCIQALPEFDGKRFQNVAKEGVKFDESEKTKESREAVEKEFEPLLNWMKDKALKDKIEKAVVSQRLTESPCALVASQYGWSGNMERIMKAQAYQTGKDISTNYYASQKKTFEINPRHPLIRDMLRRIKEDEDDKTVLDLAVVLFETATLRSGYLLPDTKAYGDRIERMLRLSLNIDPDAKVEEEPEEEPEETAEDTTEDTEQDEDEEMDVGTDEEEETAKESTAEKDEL

For `CC(C)c1cc(-c2nn[nH]c2-c2ccc(S(C)(=O)=O)cc2)c(O)cc1O`, the pIC50 [1] was 6.78.

`CC(C)c1cc(-c2nn[nH]c2-c2ccc3c(c2)OCCO3)c(O)cc1O` showed a pIC50 [1] of 6.77.

`CC(C)c1cc(-c2nnn(CC(N)=O)c2-c2ccc(S(C)(=O)=O)cc2)c(O)cc1O` showed a pIC50 [1] of 6.87.

`CC(C)c1cc(-c2nnn(CC(=O)O)c2-c2ccc(S(C)(=O)=O)cc2)c(O)cc1O` was tested, and the pIC50 [1] was 6.73.

With `CCOC(=O)Cn1nnc(-c2cc(C(C)C)c(O)cc2O)c1-c1cccc(S(C)(=O)=O)c1` the pIC50 [1] was 7.27, the pIC50 (Endoplasmin) was 7.02 and the pIC50 [2] was 4.45.

`COC(=O)Cn1nnc(-c2cc(C(C)C)c(O)cc2O)c1-c1ccc2c(c1)OCCO2` gave a pIC50 [1] of 7.32, a pIC50 (PC-3) of 6.63 and a pIC50 (Endoplasmin) of 7.11. For the same molecule, the pIC50 (HeLa) was 6.30 and the pIC50 [2] was 4.93.

`CCOC(=O)Cn1nnc(-c2cc(CC)c(O)cc2O)c1-c1ccc(CN2CCOCC2)cc1` gave a pIC50 [1] of 6.75.

For `CCc1cc(-c2nnn(CC(=O)OC)c2-c2ccc3c(c2)OCCO3)c(O)cc1O`, the pIC50 [1] was 6.76.

In the case of `COC(=O)Cn1nnc(-c2cc(C(C)C)c(O)cc2O)c1-c1ccc(CN2CCOCC2)cc1`, the pIC50 [1] was 7.04, the pIC50 (Endoplasmin) was 6.71 and the pIC50 [2] was 4.61.

In the case of `COC(=O)Cn1nnc(-c2cc(C(C)C)c(O)cc2O)c1-c1cccc(NS(C)(=O)=O)c1`, the pIC50 [1] was 7.11, the pIC50 (Endoplasmin) was 6.72 and the pIC50 [2] was 4.61.

Work on `CCc1cc(-c2nnn(CC(=O)OC)c2-c2cccc(NS(C)(=O)=O)c2)c(O)cc1O` yielded a pIC50 [1] of 6.74.

`COC(=O)Cn1nnc(-c2cc(C(C)C)c(O)cc2O)c1-c1ccc(S(C)(=O)=O)cc1` gave a pIC50 [1] of 7.36, a pIC50 (PC-3) of 6.34 and a pIC50 (Endoplasmin) of 7.05. For the same molecule, the pIC50 (HeLa) was < 5.70 and the pIC50 [2] was 4.80.

With `CCc1cc(-c2nnn(CC(=O)OC)c2-c2cccc(S(C)(=O)=O)c2)c(O)cc1O` the pIC50 [1] was 6.81.

Molecule `CCOC(=O)Cn1nnc(-c2cc(C(C)C)c(O)cc2O)c1-c1ccc2c(c1)OCCO2` has a pIC50 [1] of 7.22, a pIC50 (Endoplasmin) of 6.72 and a pIC50 [2] of 4.59.

`CC(C)c1cc(-c2nnn(Cc3ccccc3)c2-c2ccc(S(C)(=O)=O)cc2)c(O)cc1O` was tested, and the pIC50 [1] was 7.34, the pIC50 (PC-3) was 6.54 and the pIC50 (Endoplasmin) was 7.11. It also gave a pIC50 (HeLa) of 6.69 and a pIC50 [2] of 5.07.

With `CC(C)c1cc(-c2nnn(CC(=O)O)c2-c2cccc(S(C)(=O)=O)c2)c(O)cc1O` the pIC50 [1] was 6.76.

`CC(C)c1cc(-c2nnn(CC(N)=O)c2-c2ccc3c(c2)OCCO3)c(O)cc1O` was tested, and the pIC50 [1] was 6.87.

`CC(C)c1cc(-c2nnn(CC(=O)O)c2-c2cccc(NS(C)(=O)=O)c2)c(O)cc1O` gave a pIC50 [1] of 6.12.

With `CCc1cc(-c2nnn(CC(N)=O)c2-c2ccc(S(C)(=O)=O)cc2)c(O)cc1O` the pIC50 [1] was 6.33.

`CC(C)c1cc(-c2nn[nH]c2-c2ccccc2)c(O)cc1O` was tested, and the pIC50 [1] was 6.53.

Molecule `COC(=O)Cn1nnc(-c2cc(C(C)C)c(O)cc2O)c1-c1ccc(O)c(O)c1` has a pIC50 [1] of 6.81.

With `CCOC(=O)Cn1nnc(-c2cc(CC)c(O)cc2O)c1-c1ccc(S(C)(=O)=O)cc1` the pIC50 [1] was 6.52.

`COC(=O)Cn1nnc(-c2cc(C(C)C)c(O)cc2O)c1-c1cccc(S(C)(=O)=O)c1` was tested, and the pIC50 [1] was 7.37, the pIC50 (PC-3) was 6.24 and the pIC50 (Endoplasmin) was 7.27. For the same molecule, the pIC50 (HeLa) was < 5.70 and the pIC50 [2] was 4.76.

Molecule `CCOC(=O)Cn1nnc(-c2cc(CC)c(O)cc2O)c1-c1cccc(S(C)(=O)=O)c1` has a pIC50 [1] of 6.79.

`COC(=O)Cn1nnc(-c2cc(C(C)C)c(O)cc2O)c1-c1ccc(CN2CCCCC2)cc1` gave a pIC50 [1] of 7.24, a pIC50 (Endoplasmin) of 7.31 and a pIC50 [2] of 5.16.

For `COC(=O)Cn1nnc(-c2cc(C(C)C)c(O)cc2O)c1-c1ccc(OCCN(C)C)cc1`, the pIC50 [1] was 7.15, the pIC50 (Endoplasmin) was 6.76 and the pIC50 [2] was 4.85.

In the case of `CCOC(=O)Cn1nnc(-c2cc(C(C)C)c(O)cc2O)c1-c1ccc(S(C)(=O)=O)cc1`, the pIC50 [1] was 7.38, the pIC50 (PC-3) was 6.49 and the pIC50 (Endoplasmin) was 7.00. The pIC50 (HeLa) was 6.40 and the pIC50 [2] was 4.80.

For `CCc1cc(-c2nnn(CC(=O)OC)c2-c2ccc(S(C)(=O)=O)cc2)c(O)cc1O`, the pIC50 [1] was 6.67.

`CC(C)c1cc(-c2nnn(CC(=O)O)c2-c2ccc3c(c2)OCCO3)c(O)cc1O` was tested, and the pIC50 [1] was 6.76.

`CCOC(=O)Cn1nnc(-c2cc(C(C)C)c(O)cc2O)c1-c1cccc(NS(C)(=O)=O)c1` gave a pIC50 [1] of 7.11, a pIC50 (Endoplasmin) of 6.68 and a pIC50 [2] of 4.48.

For `CC(C)c1cc(-c2n[nH]c(=O)n2-c2ccc3c(ccn3C)c2)c(O)cc1O` [GANETESPIB], the pIC50 (PC-3) was 8.03, the pIC50 (Endoplasmin) was 7.42 and the pIC50 (HeLa) was 7.93.

For `CC(C)NCCCn1c(Sc2cc3c(cc2I)OCO3)nc2c(N)ncnc21` [PU-H71], the pIC50 (PC-3) was 6.44 and the pIC50 (HeLa) was 6.64.
